From patent publication US4555519A, “Thromboxane synthetase enzyme inhibiting N-[(1H-imidazol-1-yl) and (1H-1,2,4-triazol-1-yl)alkyl]pyridinecarboxamides” (American Cyanamid Company, priority 1984, dated 1985) come the findings set out here.

Test [1] has as its target T1, thromboxane synthetase enzyme (Rattus norvegicus, UniProt P49430).
T1 construct: endogenous in cells; host or cells: washed platelets from arterial blood of Okamoto-Aoki spontaneously hypertensive rats (Taconic Farms, Germantown, NY)
T1 sequence (P49430 1-533): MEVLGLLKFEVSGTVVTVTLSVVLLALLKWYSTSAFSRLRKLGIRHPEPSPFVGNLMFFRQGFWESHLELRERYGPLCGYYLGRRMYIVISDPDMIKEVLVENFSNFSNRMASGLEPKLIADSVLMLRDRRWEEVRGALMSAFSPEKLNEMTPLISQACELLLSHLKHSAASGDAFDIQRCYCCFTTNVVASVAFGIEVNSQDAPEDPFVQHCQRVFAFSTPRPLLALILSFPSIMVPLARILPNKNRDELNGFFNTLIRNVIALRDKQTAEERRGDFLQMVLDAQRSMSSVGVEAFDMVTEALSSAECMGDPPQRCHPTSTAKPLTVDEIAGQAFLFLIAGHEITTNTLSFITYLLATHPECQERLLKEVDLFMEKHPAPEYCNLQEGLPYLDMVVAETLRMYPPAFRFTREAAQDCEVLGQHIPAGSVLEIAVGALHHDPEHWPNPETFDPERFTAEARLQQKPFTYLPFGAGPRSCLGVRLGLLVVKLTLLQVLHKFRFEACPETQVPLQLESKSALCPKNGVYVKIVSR
Put plainly: inhibition of thromboxane (TXA2) formation, TXB2 determined by direct radioimmunoassay in washed rat platelets. The format is cell-based, Okamoto-Aoki spontaneously hypertensive rats (SHR). The settings on record: Dose 10^-4 M; SHR platelets, 10 minutes at 37° C. How it is done:
The inhibition of thromboxane (TXA2) formation was studied by determining the concentration of thromboxane B2 (TXB2), the stable hydrolysis product of TXA2.
Under urethan anesthesia, […] of arterial blood was collected in one ml of 3.2% sodium citrate in a polystyrene tube from Okamoto-Aoki spontaneously hypertensive rats (SHR) (Taconic Farms, Germantown, NY) between 19 and 24 weeks in age. The blood was diluted with 3 ml cold saline and centrifuged at room temperature for 15 minutes at 460 xg. The platelet rich plasma (PRP) was separated. The platelets were isolated by centrifuging the PRP for 10 minutes at 1060 xg and were washed in 4 ml cold oxygenated Krebs phosphate buffer, pH 7.4. The chilled platelets recovered from centrifuging at 800 xg for 10 minutes were resuspended in oxygenated Krebs phosphate buffer and diluted to contain 4.5-6.0×10^4 platelets/μl. Assay samples, prepared on ice, contained 200 μl platelet suspension, 50 μl saline, and 50 μl vehicle or drug under study (OKY-1581, UK-37248-01, 1-benzylimidazole, or indomethacin). The samples were incubated for 10 minutes at 37° C. in a metabolic shaker. The reaction was terminated by immersing the tubes in an ice bath and adding 50 μl of 0.5M citric acid. The samples were centrifuged for 10 minutes in a refrigerated centrifuge and the supernatants thus obtained were decanted and stored at -20° C. The TXB2 content for each sample was determined by a direct radioimmunoassay (RIA) utilizing a TXB2 specific RIA kit purchased from New England Nuclear, Boston, Mass. and expressed as pg TXB2 formed minute^-1 sample^-1, from which the percent inhibition of TXB2 formation was calculated.

Test [2] can be described thus: hypotensive activity in spontaneously hypertensive rats, mean arterial blood pressure (method of Chan and Poorvin). The format is in vivo. The settings on record: gavage, 100 mg/kg or less, two doses 24 hours apart; measured 28 hours after initial dose; average MABP of rats used 160±1.5 mm Hg; (no. of rats) in parentheses. How it is done: The novel compounds of the present invention also are active antihypertensive agents and were tested for hypotensive activity by the method of P. S. Chan and D. Poorvin, Clinical and Experimental Hypertension, 1 (6), 817-830 (1979). Male, 16 week old, spontaneously hypertensive rats of the Okamoto strain, from Taconic Farms, Germantown, N.Y., having an average mean arterial blood pressure of 160±1.5 mm of mercury are used in the test. One to three rats are used per test compound. A rat is dosed by gavage with a test compound, suspended in 2% pre-boiled starch at a concentration of 50 mg/ml, at a dose of 100 mg/kg of body weight or less with 0.9% sodium chloride loading at a dose of 25 ml/kg of body weight. A second identical dose of the test compound without sodium chloride loading is given 24 hours later. At 28 hours after the initial dose the mean arterial blood pressure is measured by the method of Chan and Poorvin vide supra. The procedure is repeated in a second and third rat when necessary.

SMILES strings stand for the structures.

`O=C(NCCCn1ccnc1)c1cccnc1Cl` [2-Chloro-N--[3-(1H--imidazol-1-yl)propyl]-3-pyridinecarboxamide]: 100 µM produced 58% inhibition in test [1]. On to `Cc1cn(CCCNC(=O)c2cccnc2Cl)cn1` [2-Chloro-N--[3-(4-methyl-1H--imidazol-1-yl)propyl]-3-pyridinecarboxamide], for which the inhibition (commonly the drop in the measured response relative to a control, in per cent) at 100 µM in test [1] was determined as 50%.

In turn, `O=C(NCCCCn1ccnc1)c1cccnc1Cl` [2-Chloro-N--[4-(1H--imidazol-1-yl)butyl]-3-pyridinecarboxamide] displayed an inhibition at 100 µM in test [1] of 90%. Same read-out and setting: with `Cc1nccn1CCCNC(=O)c1cccnc1Cl` [2-Chloro-N-[3-(2-methyl-1H-imidazol-1-yl)propyl]-3-pyridinecarboxamide] the figure was 38%. With `O=C(NCCCn1ccnc1)c1ccc(Cl)nc1` [6-Chloro-N--[3-(1H--imidazol-1-yl)propyl]-3-pyridinecarboxamide], in test [2], the “MABP in mm Hg” value turned out to be 132 mm Hg. This compound yielded an inhibition at 100 µM in test [1] of 88%. Consider `O=C(NCCCCn1ccnc1)c1ccc(Cl)nc1` [6-Chloro-N--[4-(1H--imidazol-1-yl)butyl]-3-pyridinecarboxamide], for which the inhibition at 100 µM in test [1] is 94%. As to `O=C(NCCCn1cncn1)c1ccc(Cl)nc1` [6-Chloro-N-[3-(1H-1,2,4-triazol-1-yl)propyl]-3-pyridinecarboxamide], the “MABP in mm Hg” value in test [2] was determined as 140 mm Hg. In test [1], the inhibition at 100 µM was determined as 67%. In the case of `CC(CNC(=O)c1ccc(Cl)nc1)Cn1ccnc1` (stereo not shown) [6-Chloro-N-[3-(1H-imidazol-1-yl)-2-methylpropyl]-3-pyridinecarboxamide], in test [2], the “MABP in mm Hg” value was 129 mm Hg. Moreover, at 100 µM the inhibition in test [1] was 98%. Regarding `CC(CCNC(=O)c1ccc(Cl)nc1)n1ccnc1` (stereo not shown) [6-Chloro-N-[3-(1H-imidazol-1-yl)butyl]-3-pyridinecarboxamide], the “MABP in mm Hg” value in test [2] came to 111 mm Hg. For the same compound, testing at 100 µM in test [1] gave an inhibition of 98%. On to `Cc1nccn1CCCNC(=O)c1ccc(Cl)nc1` [6-Chloro-N-[3-(2-methyl-1H-imidazol-1-yl)propyl]-3-pyridinecarboxamide], for which at 100 µM the inhibition in test [1] was 44%. On the same count and under the same terms, with `O=C(NCCCn1ccnc1-c1ccccc1)c1ccc(Cl)nc1` [6-Chloro-N-[3-(2-phenyl-1H-imidazol-1-yl)propyl]-3-pyridinecarboxamide] the figure was 56%. For `Cc1cn(CCCNC(=O)c2ccc(Cl)nc2)cn1` [6-Chloro-N-[3-(4-methyl-1H-imidazol-1-yl)propyl]-3-pyridinecarboxamide], the “MABP in mm Hg” value in test [2] came to 139 mm Hg. This compound came in with an inhibition at 100 µM in test [1] of 86%. For `O=C(NCCCn1ccnc1)c1cccnc1` [N--[3-(1H--Imidazol-1-yl)propyl]-3-pyridinecarboxamide], in that order: 138 mm Hg and 83%. As for `Cc1cn(CCCNC(=O)c2ccccn2)cn1` [N--[3-(4-Methyl-1H--imidazol-1-yl)propyl]-2-pyridinecarboxamide], the “MABP in mm Hg” value in test [2] is reported as 140 mm Hg. In test [1], this compound showed an inhibition at 100 µM of 84%. For `Cc1cn(CCCNC(=O)c2cccnc2)cn1` [N--[3-(4-Methyl-1H--imidazol-1-yl)propyl]-3-pyridinecarboxamide], in that order: 123 mm Hg and 50%. Regarding `O=C(NCCCn1ccnc1)c1ccccn1` [N-[3-(1H-Imidazol-1-yl)propyl]-2-pyridinecarboxamide], in test [2], the “MABP in mm Hg” value was 127 mm Hg. Testing at 100 µM in test [1] gave an inhibition of 59%.

As for `O=C(NCCCn1ccnc1-c1ccccc1)c1ccccn1` [N-[3-(2-Phenyl-1H-imidazol-1-yl)propyl]-2-pyridinecarboxamide], the inhibition at 100 µM in test [1] came to 30%.

In the case of `O=C(NCCCCn1ccnc1)c1ccccn1.O=C(O)/C=C/C(=O)O` [N-[4-(1H-Imidazol-1-yl)butyl]-2-pyridinecarboxamide, fumarate], in test [2], the “MABP in mm Hg” value was 116 mm Hg. The inhibition at 100 µM in test [1] turned out to be 82%.
